# Test results reported in publication PMC10606064, “2-Aminothiazole-Flavonoid Hybrid Derivatives Binding to Tau Protein and Responsible for Antitumor Activity in Glioblastoma” (International Journal of Molecular Sciences, 2023).
# Columns and labels:
# [1] = target: T1, full-length human Tau (hTau40) (Homo sapiens, UniProt P10636); assay: Tau oligomerization inhibition assay (heparin-induced, thioflavin S fluorescence); type: biochemical; conditions: 2 µM Tau, heparin-induced, ThS; buffer A pH 6.9; 25 °C per table footnote (37 °C in method); mean ± SD; read-out: Inhibition of Aggregation IC50
# T1 construct: The full-length human Tau (hTau40) was expressed in a transformed E. coli BL21 (DE3) strain; made in house; host or cells: E. coli BL21 (DE3)
# T1 sequence (P10636 1-441 isoform P10636-8): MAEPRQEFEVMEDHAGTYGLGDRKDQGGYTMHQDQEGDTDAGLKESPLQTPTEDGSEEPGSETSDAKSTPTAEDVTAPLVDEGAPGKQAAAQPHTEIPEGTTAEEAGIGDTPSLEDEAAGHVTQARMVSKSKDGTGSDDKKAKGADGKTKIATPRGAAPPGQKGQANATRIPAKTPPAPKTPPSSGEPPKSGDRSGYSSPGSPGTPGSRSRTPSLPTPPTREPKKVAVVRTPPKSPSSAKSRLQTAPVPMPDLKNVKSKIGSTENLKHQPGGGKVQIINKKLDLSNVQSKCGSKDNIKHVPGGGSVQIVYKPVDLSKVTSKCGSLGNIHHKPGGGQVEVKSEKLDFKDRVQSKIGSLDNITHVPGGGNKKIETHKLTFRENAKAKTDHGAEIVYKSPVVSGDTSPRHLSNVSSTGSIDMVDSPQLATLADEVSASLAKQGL
# Description: Tau oligomerization inhibition assay was performed at 37 °C in 96-well plates by monitoring thioflavin-S fluorescence at 520 nm after excitation at 440 nm using a microplate reader (POLARstar Omega system, BMG Labtech, Paris, France). The Tau oligomerization process was induced by heparin. […] The plates were shaken at 200 rpm for 10 s before each measurement. The real value of fluorescence at the plateau was determined using SciDAVis v1.23 software. Data were fitted to the SciDAVis built-in ExpGrowth equation by means of nonlinear least-squares regression analysis. Y = Y0 + A × exp(x/t)(1)
# The unscaled Levenberg–Marquardt algorithm was used, and initial values were given to Y0, A, and t. The final Y0 value of the model corresponds to the plateau value. The plateau values were then used to calculate the Tau oligomerization inhibition percentage. The IC50 for each compound was calculated from the scatter plot of Tau oligomerization inhibition (in percentage) as a function of log10 of compound concentration. The IC50 value (in µM) thus corresponds to ten raised to the power of […].
# [2] = tested on: T98G glioblastoma cells; assay: MTT cell viability assay, T98G; type: cell-based; conditions: Homo sapiens, 72 h, mean ± SEM, read-out: IC50 (metabolic activity)
# Description: (§1) Cells harvested from sub-confluent monolayers were seeded at 15,000 cells per mL in a 96-well microtiter plate (Cambridge Technology, Labège, France) and cultured for 24 h under standard conditions. Standard medium was then replaced by fresh medium containing no drugs or compounds at different concentrations. The surviving cells were quantified after 72 h by the MTT assay, according to the manufacturer’s instructions. Briefly, 20 µL of 3-(4,5-diMethylThiazol-2-yl)-2,5diphenyl Tetrazolium bromide (MTT) solution at 5 mg.mL^−1 was added to cells for 3 h at 37 °C. The supernatant was discarded and replaced by 100 µL of dimethyl sulfoxide to dissolve formazan crystals. The absorbance was then read at 600 nm by spectrophotometry. For all concentrations of a given compound, cell viability was expressed as the percentage of the ratio between the mean absorbance of treated cells and the mean absorbance of untreated cells. Three independent experiments were performed, and the data were expressed as percentage of survival (using the untreated cells as 100%) and subjected to statistical analysis (n = 3). The IC50 was calculated using the Chou and Talalay method.
# [3] = tested on: SK-N-SH neuroblastoma cells; assay: MTT cell viability assay, SK-N-SH; type: cell-based; conditions: Homo sapiens, 72 h, mean ± SEM, read-out: IC50 (metabolic activity)
# Description: as §1
# [4] = tested on: U87 shTau cells; assay: MTT cell viability assay, U87 shTau (Tau-depleted); type: cell-based; conditions: Homo sapiens, 72 h, mean ± SEM, read-out: IC50 (metabolic activity)
# Description: All cell lines were purchased from ATCC, Gaithersburg, MD, USA. Cells from human glioblastoma (clones U87 wt, HTB-14; U118, HTB-15; U251, HTB-12; U138, HTB-16), neuroblastoma (clone SK-N-SH, HTB-11), and colorectal adenocarcinoma (clone Caco-2, HTB-37) were routinely grown at 37 °C in a humidified atmosphere containing 5% CO2. Cells were maintained by regular passages in complete media supplemented with 10% FBS, 2mM of L-glutamine, 100 U/mL of penicillin, and 50 U/mL of streptomycin (Invitrogen, Paris, France). For U87 wt, U251, U138, and SK-N-SH cells, the medium consisted of EMEM (Lonza, Levallois Perret, France). U118 and Caco-2 lines were maintained in DMEM. The U87 wt-derived lines, U87 shCTRL, and U87 shTau2 cells were continuously maintained in complete EMEM medium supplemented with 0.4 µg/mL of puromycin. The shRNA sequences and the protocol of clone selection and Tau downregulation were previously described in [20]. For Tau expression rescue, the U87 shCTRL and U87 shTau cells were seeded two days prior to experiments at 4.10^5 cells per 60 mm dish in 6 mL of complete medium. Cells were transfected using LipofectAmine 2000 according to Invitrogen instructions and 8 µg EGFP-free plasmid constructs (for U87 shCTRL) and EGFP-hTau40 plasmid constructs (for U87 shTau) were used in total. One day prior to experiments, all cells were plated in a 96-well microtiter plate to prepare for viability assays. Cells were free from mycoplasma as determined by mycoalert tests (Lonza).
# as §1
# [5] = tested on: lactate-dehydrogenase (LDH) of U87 shCTRL and U87 shTau cells; assay: LDH activity in the medium (necrosis); type: cell-based; conditions: both cell types, 24 h treatment
# Description: death. (A) The apoptotic protein casp ase 3 (Casp 3) was analy zed by western blot of U87 shCTRL and U87 shTau cells: for each s ample t he ratio between the amount of Casp3 and GAPDH was calculated as relative fold of the reference value (with or without the compound); n = 3 lysates, ns: non-si gnificant. […]
# blot used for quantification. (B) The activity of necrotic LDH protein was analy zed by fluorescence emission in U87 shCTRL (upper panel) and U87 shTau (lower panel) cells. For each s ample, the ratio between LDH florescence was calculated as the percentage of activity against reference value (0,1% Triton); n = 3 lysates; Significant statistical differences were calculated using a non-parametric Mann-Whitney test with **P < 0.01; n.s: non-significant.
# (1 picture or pasted object on this page, not shown here)
# [6] = target: T2, Tau-induced microtubule assembly (tubulin) (Homo sapiens, UniProt P10636); assay: Turbidimetry of in vitro Tau-induced microtubule assembly; type: biochemical, lamb; conditions: 10 µM tubulin, 5 µM Tau, 2.5–50 µM compound, 37 °C
# T2 construct: The full-length human Tau (hTau40) was expressed in a transformed E. coli BL21 (DE3) strain; made in house; host or cells: Tau: E. coli BL21 (DE3); tubulin: purified from lamb brain tissue
# T2 sequence (P10636 2-441 isoform P10636-8): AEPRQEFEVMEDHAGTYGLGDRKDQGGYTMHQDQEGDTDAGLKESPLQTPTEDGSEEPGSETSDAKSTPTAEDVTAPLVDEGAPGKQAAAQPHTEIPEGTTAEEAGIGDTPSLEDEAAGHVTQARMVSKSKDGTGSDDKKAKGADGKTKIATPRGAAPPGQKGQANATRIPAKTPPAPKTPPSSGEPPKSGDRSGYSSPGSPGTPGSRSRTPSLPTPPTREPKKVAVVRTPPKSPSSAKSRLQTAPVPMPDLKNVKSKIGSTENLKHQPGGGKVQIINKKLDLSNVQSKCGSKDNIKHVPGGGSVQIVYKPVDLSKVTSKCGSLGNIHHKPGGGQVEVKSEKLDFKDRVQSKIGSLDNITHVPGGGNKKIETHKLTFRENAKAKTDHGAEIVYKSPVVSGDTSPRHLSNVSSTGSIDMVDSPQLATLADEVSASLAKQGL
# Description: The polymerization of tubulin was monitored by measuring the apparent absorbance at 350 nm using a Beckman DU 7400 spectrophotometer at 37 °C. Tubulin at a final concentration of 10 µM was mixed with compounds at the indicated concentration and immediately placed into the spectrometer chamber. When the signal was stable, Tau at a final concentration of 5 µM was added to induce microtubule formation. Measurements were continued until turbidity values reached a plateau.
IC50 [1] [µM],IC50 [2] [µM],IC50 [3] [µM],IC50 [4] [µM],effect on turbidity time course of Tau-induced microtubule assembly [6],SMILES,LDH activity [5]
> 100,> 100,> 100,> 100,no effect on the turbidity time course,Nc1nc2ccc3oc(C(=O)O)cc(=O)c3c2s1 [Compound 5],remained similar to untreated cells
31.7 ± 7.3,2.8 ± 2.4,1.2 ± 0.3,4.7 ± 0.3,no effect on the turbidity time course,"Nc1nc2ccc3oc(-c4cccc(Oc5ccccc5)c4)cc(=O)c3c2s1 [Compound 2, 2-amino-7-(3-phenoxyphenyl)-9H-chromeno [6,5-d]thiazol-9-one]",remained similar to untreated cells
